Test in all cases: microbe, parasite or virus in culture
For test [1], the system named is NS5A chimeric genotype 1b Con1 replicon with genotype 3a S52 strain NS5A gene. Type of test: cell-based, HCV. Put shortly:
(§1)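 Con1 1b replicons carrying 3a S52 or 4a ED43 NS5A with Pi-RLuc reporter were transiently transfected into Huh-Lunet cells; 2b MD2b-1 NS5A (M31) in JFH-1 2a backbone with RLuc-Neo, transient or stable.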

Test [2] deals with NS5A chimeric genotype 2a JFH-1 replicon with genotype 2b MD2b-1 strain NS5A gene (M31 present). Type of test: cell-based, HCV. Put shortly:
as §1

Test [3] relates to NS5A chimeric genotype 2a JFH-1 replicon with genotype 2a J6 strain NS5A gene (M31 present). In kind it is cell-based, HCV.
The subject of test [4] is stable HCV 2a JFH-1 Rluc replicon cells (L31 present in NS5A). Type of test: cell-based.
Test [5] relates to stable HCV 1b RLuc replicon cells (genotype 1b Con1 replicon). Type of test: cell-based.
Test [6] deals with stable HCV 1a RLuc replicon cells (genotype 1a H77 replicon). In kind it is cell-based. To be noted: Hepatitis C virus.
Test [7] concerns 1a Pi-Rluc replicon with Q30R in genotype 1a NS5A. Type of test: cell-based, HCV. The gist of the method:
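Q30R introduced by site-directed mutagenesis into genotype 1a Pi-RLuc replicon; RNA transiently transfected into Huh-7-derived cured-51 cells.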

Test [8] deals with NS5A chimeric genotype 1b Con1 replicon with genotype 4a ED43 strain NS5A gene. Type of test: cell-based, HCV.
Where [9] appears, read: Hepatitis C virus, read-out: 3a.
Setting [10] is: Hepatitis C virus, read-out: 3a (nM).
Setting [11] is: Hepatitis C virus, read-out: 2b.
[12] abbreviates: Hepatitis C virus, read-out: 2b (t) (nM).
[13] abbreviates: Hepatitis C virus, read-out: 2a J6.
Setting [14] is: Hepatitis C virus, read-out: 2a Jb (t) (nM).
Where [15] appears, read: Hepatitis C virus, read-out: 2a JFH.
The mark [16] stands for this setting: Hepatitis C virus, read-out: 2a JFH (nM).
Setting [17] is: Hepatitis C virus, read-out: 1b (nM).
[18] abbreviates: Hepatitis C virus, read-out: 1a Q30R.
Where [19] appears, read: Hepatitis C virus, read-out: 1a Q30R (nM).

Read-outs that look alike come from different tables or passages of the source. Where only a bound is given, the exact number is not on record here.

Regarding `COC[C@H]1C[C@@H](c2nc3ccc4cc5c(cc4c3[nH]2)OCc2cc(-c3cnc([C@@H]4CC6C[C@H]6N4C(=O)[C@@H](NC(=O)OC)C(C)C)[nH]3)ccc2-5)N(C(=O)[C@H](NC(=O)OC)c2ccccc2)C1` (some centres unmarked) [Example LT, methyl{2-[2-{9-[2-(2-{2-[(methoxycarbonyl)amino]-3-methylbutanoyl}-2-azabicyclo[3.1.0]hex-3-yl)-1H-imidazol-5-yl]-1,11-dihydroisochromeno[4′,3′:6,7]naphtho[1,2-d]imidazol-2-yl}-4-(methoxymethyl)pyrrolidin-1-yl]-2-oxo-1-phenylethyl}carbamate], the EC50 in test [1] (setting [9]) was below 1 nM; in test [1] (setting [10]), 0.012 nM; in test [2] (setting [11]), below 1 nM; in test [2] (Hepatitis C virus, read-out: 2b (s) (nM)) it was 0.039 nM; in test [2] (setting [12]), 0.009 nM; in test [3] (setting [13]), below 1 nM. Besides, the EC50 in test [3] (Hepatitis C virus, read-out: 2a J6 (s) (nM)) was 0.047 nM; in test [3] (setting [14]), 0.01 nM; in test [4] (setting [15]), below 1 nM; in test [4] (setting [16]) it was 0.004 nM; in test [5] (setting [17]), 0.016 nM; in test [6] (read-out: 1a) it was below 1 nM. The EC50 was 0.009 nM in test [6] (read-out: 1a (nM)); below 1 nM in test [7] (setting [18]); 0.01 nM in test [7] (setting [19]); below 1 nM in test [8] (Hepatitis C virus, read-out: 4a); 0.009 nM in test [8] (Hepatitis C virus, read-out: 4a (s) (nM)); 0.015 nM in test [8] (Hepatitis C virus, read-out: 4a (t) (nM)).

For `COC[C@H]1C[C@@H](c2nc3ccc4cc5c(cc4c3[nH]2)OCc2cc(-c3cnc([C@@H]4CCCN4C(=O)[C@@H](NC(=O)OC)[C@@H](C)OC)[nH]3)ccc2-5)N(C(=O)[C@H](NC(=O)OC)c2ccccc2)C1` [Example OT, Methyl {(1R)-2-[(2S,4S)-2-(9-{2-[(2S)-1-{(2S,3R)-3-methoxy-2-[(methoxycarbonyl)amino]butanoyl}pyrrolidin-2-yl]-1H-imidazol-5-yl}-1,11-dihydroisochromeno[4′,3′:6,7]naphtho[1,2-d]imidazol-2-yl)-4-(methoxymethyl)pyrrolidin-1-yl]-2-oxo-1-phenylethyl}carbamate], the EC50 in test [1] (setting [9]) is below 1 nM; in test [1] (setting [10]) it was 0.024 nM; in test [2] (setting [11]) it was below 1 nM; in test [2] (setting [12]) it was 0.012 nM; in test [3] (setting [13]) it was below 1 nM; in test [3] (setting [14]), 0.013 nM. The EC50 was below 1 nM in test [4] (setting [15]); 0.005 nM in test [4] (setting [16]); 0.02 nM in test [5] (setting [17]); below 1 nM in test [6] (read-out: 1a); 0.011 nM in test [6] (read-out: 1a (nM)); below 1 nM in test [7] (setting [18]). Besides, the EC50 in test [7] (setting [19]) stood at 0.041 nM.

For the molecule “dimethyl (2S,2′S)-1,1′-((2S,2′S)-2,2′1-pyrrolidin-2-yl)-5H-naphtho[c,g]chromeno[8,9-d]imidazol-9-yl)-1H-imidazol-2-yl)pyrrolidin-1-yl))bis(3-methyl-1-oxobutane-2,1-diyl)dicarbamate [Example MC]”, the EC50 in test [1] (genotype 3a, EC50 range, read-out: 3a) is below 1 nM; in test [1] (genotype 3a, read-out: 3a), 0.004 nM; in test [2] (genotype 2b, EC50 range, transiently transfected cells (t), else stably replicating cells (s), read-out: 2b) it was below 1 nM; in test [2] (stably replicating cells (s), read-out: 2b (s)) it was 0.375 nM; in test [2] (transiently transfected cells (t), read-out: 2b (t)) it was 0.162 nM; in test [3] (genotype 2a J6, EC50 range, transiently transfected cells (t), else stably replicating cells (s), read-out: 2a J6), 1 to 4.99 nM. In addition, the EC50 is 3.52 nM in test [3] (stably replicating cells (s), read-out: 2a J6 (s)); 1.16 nM in test [3] (transiently transfected cells (t), read-out: 2a Jb (t)); below 1 nM in test [4] (genotype 2a JFH, EC50 range, read-out: 2a JFH); 0.004 nM in test [4] (genotype 2a JFH, read-out: 2a JFH); 0.017 nM in test [5] (read-out: 1b); below 1 nM in test [7] (1a Q30R resistance mutant, EC50 range, read-out: 1a Q30R). The EC50 in test [7] (1a Q30R resistance mutant, read-out: 1a Q30R) was 0.99 nM; in test [8] (genotype 4a, EC50 range, transiently transfected cells (t), else stably replicating cells (s), read-out: 4a) it was below 1 nM; in test [8] (stably replicating cells (s), read-out: 4a (s)) it was 0.028 nM; in test [8] (transiently transfected cells (t), read-out: 4a (t)) it was 0.008 nM.

The values are drawn from patent US8575135B2 (Gilead Sciences, Inc., priority 2011, dated 2013).
